Assay results reported in the supplement of paper PMC10307832.

Tests used:
Assay in all cases: relative viability (nuclei count vs DMSO), 5 days (fraction); higher = more cells survive
[1] = compound: COc1cc(Nc2c(C#N)cnc3cc(OCCCN4CCN(C)CC4)c(OC)cc23)c(Cl)cc1Cl [Bosutinib] + CC(=O)Nc1cccc(-n2c(=O)n(C3CC3)c(=O)c3c(Nc4ccc(I)cc4F)n(C)c(=O)c(C)c32)c1 [Trametinib] (partner 0.02 µM)
Outline: (§1)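 Relative viability is defined as nuclei in treated wells over nuclei in vehicle wells. Duplicate plates were run and medians reported. Lung cancer cell lines in 1536-well plates were dosed by pin tool one day after seeding, with one drug or with a fixed anchor-drug dose plus five library-drug doses (not always all listed) in √10 steps, and nuclei were counted after 5 days.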

[2] = compound: COc1cc(Nc2c(C#N)cnc3cc(OCCCN4CCN(C)CC4)c(OC)cc23)c(Cl)cc1Cl [Bosutinib] + CC1(C)CCC(c2ccc(Cl)cc2)=C(CN2CCN(c3ccc(C(=O)NS(=O)(=O)c4ccc(N[C@H](CCN5CCOCC5)CSc5ccccc5)c(S(=O)(=O)C(F)(F)F)c4)cc3)CC2)C1 [Navitoclax] (partner 0.5 µM)
Outline: as §1

[3] = compound: COc1cc(Nc2c(C#N)cnc3cc(OCCCN4CCN(C)CC4)c(OC)cc23)c(Cl)cc1Cl [Bosutinib] + COc1cccc2cc(-c3nc([C@H]4CC[C@H](C(=O)O)CC4)n4ncnc(N)c34)[nH]c12 [OSI-027] (partner 0.5 µM)
Outline: as §1

[4] = compound: COc1cc(Nc2c(C#N)cnc3cc(OCCCN4CCN(C)CC4)c(OC)cc23)c(Cl)cc1Cl [Bosutinib] + Cc1cc(Nc2cc(N3CCN(C)CC3)nc(Sc3ccc(NC(=O)C4CC4)cc3)n2)n[nH]1 [Tozasertib] (partner 0.1 µM)
Outline: as §1

[5] = compound: COc1cc(Nc2c(C#N)cnc3cc(OCCCN4CCN(C)CC4)c(OC)cc23)c(Cl)cc1Cl [Bosutinib] + O=C(c1cc(Cc2n[nH]c(=O)c3ccccc23)ccc1F)N1CCN(C(=O)C2CC2)CC1 [Olaparib] (partner 8 µM)
Outline: as §1

Cell Line	relative viability ([1]; first compound 0.01 µM)	relative viability ([1]; first compound 0.03162 µM)	relative viability ([1]; first compound 0.1 µM)	relative viability ([1]; first compound 1 µM)	relative viability ([2]; first compound 0.01 µM)	relative viability ([2]; first compound 0.03162 µM)	relative viability ([2]; first compound 0.1 µM)	relative viability ([2]; first compound 1 µM)	relative viability ([3]; first compound 0.01 µM)	relative viability ([3]; first compound 0.03162 µM)	relative viability ([3]; first compound 0.1 µM)	relative viability ([3]; first compound 1 µM)	relative viability ([4]; first compound 0.01 µM)	relative viability ([4]; first compound 0.03162 µM)	relative viability ([4]; first compound 0.1 µM)	relative viability ([4]; first compound 1 µM)	relative viability ([5]; first compound 0.01 µM)	relative viability ([5]; first compound 0.03162 µM)	relative viability ([5]; first compound 0.1 µM)	relative viability ([5]; first compound 1 µM)
LXF-289	0.654	0.721	0.679	0.751	0.938	0.945	0.911	0.966	0.765	0.849	0.823	0.898	0.183	0.191	0.238	0.179	1.05	1.12	0.972	1.24
NCI-H23	0.343	0.344	0.36	0.277	0.904	0.742	0.869	0.764	0.583	0.605	0.601	0.533	0.368	0.345	0.404	0.364	0.326	0.328	0.348	0.278
NCI-H322M	0.486	0.481	0.492	0.361	1.12	1.25	1.28	1.2	0.531	0.566	0.549	0.422	0.472	0.46	0.497	0.315	0.762	0.758	0.741	0.492
NCI-H441	0.509	0.476	0.436	0.379	0.589	0.599	0.411	0.518	0.622	0.71	0.719	0.628	0.673	0.589	0.599	0.823	0.431	0.562	0.755	0.678
NCI-H460	0.17	0.135	0.157	0.0941	1.09	1.11	1.02	0.683	0.803	0.631	0.7	0.603	0.555	0.545	0.479	0.112	0.388	0.407	0.392	0.414
NCI-H520	0.703	0.633	0.6	0.417	1.33	0.988	1.05	0.964	0.293	0.257	0.235	0.196	0.407	0.446	0.39	0.347	0.358	0.379	0.352	0.298
NCI-H596	0.842	0.765	0.825	0.663	1.06	0.86	1.18	0.785	0.743	0.738	0.639	0.496	1.06	0.828	0.893	0.788	0.73	0.715	0.705	0.564
NCI-H647	0.488	0.483	0.375	0.221	1.25	1.23	1.09	0.82	0.661	0.741	0.724	0.496	0.38	0.203	0.389	0.201	0.6	0.474	0.481	0.287
NCI-H727	0.377	0.359	0.378	0.305	0.429	0.519	0.437	0.291	0.605	0.817	0.564	0.529	0.577	0.598	0.549	0.441	0.6	0.87	0.69	0.563
NCI-H838	0.518	0.483	0.472	0.316	1.14	1.14	1.07	0.637	0.43	0.45	0.361	0.317	0.306	0.294	0.263	0.215	0.84	0.752	0.684	0.406
NCI-H1355	0.474	0.425	0.45	0.419	0.996	0.925	0.96	0.814	0.412	0.466	0.465	0.381	0.549	0.603	0.524	0.475	0.715	0.733	0.784	0.633
NCI-H1395	0.992	0.993	1.02	0.928	1.45	1.01	1.34	1.12	0.679	0.662	0.771	0.629	0.758	0.727	0.718	0.66	0.456	0.511	0.468	0.487
NCI-H1437	0.486	0.403	0.53	0.413	1.13	1.11	1.01	0.918	0.887	0.878	0.938	0.886	0.401	0.426	0.407	0.344	0.609	0.635	0.604	0.545
NCI-H1650	0.532	0.584	0.6	0.312	1.46	1.06	1.18	0.754	0.734	0.6	0.444	0.41	0.344	0.407	0.36	0.295	0.705	0.717	0.632	0.565
NCI-H1651	0.805	0.801	0.829	0.757	1	1.17	0.88	0.961	0.678	0.793	0.709	0.657	0.586	0.742	0.612	0.624	0.184	0.189	0.184	0.201
